In ChEMBL document CHEMBL6083281, “Development of a Fluorescence Probe for High-Throughput Screening of Allosteric Inhibitors Targeting TRAP1” (J Med Chem, 2024):

Key:
[1] = test system: CWR22R; assay: Cytotoxicity against human 22Rv1 cells assessed as reduction in cell viability incubated for 24 hrs by MTT assay; conditions: 22Rv1, 24 h
[2] = test system: HeLa; assay: Cytotoxicity against human HeLa cells assessed as reduction in cell viability incubated for 24 hrs by MTT assay
[3] = biological target: T1, Heat shock protein 75 kDa, mitochondrial (Homo sapiens, UniProt Q12931)
T1 sequence (Q12931 whole entry): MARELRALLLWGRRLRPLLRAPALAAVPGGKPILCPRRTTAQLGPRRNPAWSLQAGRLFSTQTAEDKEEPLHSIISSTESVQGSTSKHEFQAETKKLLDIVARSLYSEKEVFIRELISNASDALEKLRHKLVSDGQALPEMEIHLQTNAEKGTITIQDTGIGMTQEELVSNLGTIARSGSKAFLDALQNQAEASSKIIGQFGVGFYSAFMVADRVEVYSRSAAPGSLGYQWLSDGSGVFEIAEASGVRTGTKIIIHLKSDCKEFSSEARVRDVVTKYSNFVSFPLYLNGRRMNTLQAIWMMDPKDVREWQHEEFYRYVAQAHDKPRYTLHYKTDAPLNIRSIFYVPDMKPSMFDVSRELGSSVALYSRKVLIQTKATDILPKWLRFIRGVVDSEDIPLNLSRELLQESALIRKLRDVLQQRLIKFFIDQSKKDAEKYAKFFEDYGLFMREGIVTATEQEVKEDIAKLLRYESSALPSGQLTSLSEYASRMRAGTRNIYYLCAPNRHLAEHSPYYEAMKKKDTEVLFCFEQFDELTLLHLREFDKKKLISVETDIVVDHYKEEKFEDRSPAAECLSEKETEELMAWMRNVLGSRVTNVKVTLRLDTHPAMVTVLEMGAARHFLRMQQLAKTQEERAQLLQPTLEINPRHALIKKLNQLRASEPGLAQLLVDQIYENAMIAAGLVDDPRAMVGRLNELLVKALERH

[4] = biological target: Heat shock protein 75 kDa, mitochondrial (Homo sapiens, UniProt Q12931, F353A/F531A)
[5] = biological target: T1, Heat shock protein 75 kDa, mitochondrial; assay: Binding affinity to TRAP1 (unknown origin) assessed as dissociation constant incubated for 15 mins by MST analysis
[6] = biological target: T1, Heat shock protein 75 kDa, mitochondrial; remark: listed apart in the source
Description: Binding affinity to N-terminal 6Hits-tagged/TEV-fused human wildtype TRAP1 extracted from Escherichia coli BL21 (DE3) cells assessed as dissociation constant incubated for 2 hrs by fluorescence polarization assay

[7] = biological target: T1, Heat shock protein 75 kDa, mitochondrial; assay: Binding affinity to TRAP1 (unknown origin) assessed as dissociation constant by MST analysis

Chain of Heat shock protein 75 kDa, mitochondrial (Homo sapiens, UniProt Q12931, F353A/F531A) (Q12931 60-704 F353A/F531A limits assumed): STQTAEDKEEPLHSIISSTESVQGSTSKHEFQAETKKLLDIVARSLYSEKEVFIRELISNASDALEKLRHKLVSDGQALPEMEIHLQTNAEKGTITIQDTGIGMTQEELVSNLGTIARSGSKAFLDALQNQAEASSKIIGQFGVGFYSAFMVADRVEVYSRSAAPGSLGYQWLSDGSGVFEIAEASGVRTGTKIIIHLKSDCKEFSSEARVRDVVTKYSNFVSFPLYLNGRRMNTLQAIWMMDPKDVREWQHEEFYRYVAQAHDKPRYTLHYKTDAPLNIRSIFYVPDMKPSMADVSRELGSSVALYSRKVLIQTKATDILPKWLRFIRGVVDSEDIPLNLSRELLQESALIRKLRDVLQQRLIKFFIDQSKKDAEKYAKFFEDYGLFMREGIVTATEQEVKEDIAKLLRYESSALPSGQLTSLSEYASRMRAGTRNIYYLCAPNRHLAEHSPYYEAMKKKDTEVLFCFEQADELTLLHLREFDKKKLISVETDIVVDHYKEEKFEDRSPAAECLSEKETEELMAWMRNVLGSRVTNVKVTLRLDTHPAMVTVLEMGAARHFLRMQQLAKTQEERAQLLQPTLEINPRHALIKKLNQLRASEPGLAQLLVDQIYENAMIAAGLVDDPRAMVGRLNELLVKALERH

| SMILES | IC50 [1] [µM] | IC50 [2] [µM] | IC50 [3] [µM] | Kd [4] [µM] | Kd [5] [µM] | Kd [6] [µM] | Kd [7] [µM] |
| --- | --- | --- | --- | --- | --- | --- | --- |
| O=C(CCCCCCCCC[P+](c1ccccc1)(c1ccccc1)c1ccccc1)Oc1ccc(-c2cc(=S)ss2)cc1 | > 20 | > 20 | 8.94 | – | – | – | – |
| COc1cc(C)c(CCCCCCCCCC[P+](c2ccccc2)(c2ccccc2)c2ccccc2)cc1OC | 0.502 | 3.21 | 3.8 | – | – | – | – |
| O=C(C/C(=C/c1ccccc1)C[P+](c1ccccc1)(c1ccccc1)c1ccccc1)C/C(=C\c1ccccc1)C[P+](c1ccccc1)(c1ccccc1)c1ccccc1 | 17.4 | > 20 | > 20 | – | – | – | – |
| Cc1c(C)c2c(c(C)c1O)CCC(C)(CCCCCCCCCC[P+](c1ccccc1)(c1ccccc1)c1ccccc1)O2 (stereo not given) | 0.183 | 1.45 | 8.42 | – | – | – | – |
| COc1cc(COC(=O)CCCCC[P+](c2ccccc2)(c2ccccc2)c2ccccc2)c(OC)c2c1OCO2 | 18.3 | > 20 | > 20 | – | – | – | – |
| c1ccc([P+](Cc2c3ccccc3c(C[P+](c3ccccc3)(c3ccccc3)c3ccccc3)c3ccccc23)(c2ccccc2)c2ccccc2)cc1 | > 20 | > 20 | 9.96 | – | – | – | – |
| Cc1c(C)c2c(c(C)c1O)CCC(C)(CC[P+](c1ccccc1)(c1ccccc1)c1ccccc1)O2 (stereo not given) | 17.4 | > 20 | > 20 | – | – | – | – |
| O=C(c1ccccc1)C(O)(CCC[P+](c1ccccc1)(c1ccccc1)c1ccccc1)c1ccccc1 (stereo not given) | 3.49 | 17.6 | > 20 | – | – | – | – |
| CN(C)CCOc1ccc(/C(=C(/CCCCCCCCCC[P+](c2ccccc2)(c2ccccc2)c2ccccc2)c2ccccc2)c2ccccc2)cc1 | 0.62 | 0.94 | 2.53 | 28 | 4.41 | – | – |
| CN(CCCCCC[P+](c1ccccc1)(c1ccccc1)c1ccccc1)C(=O)c1ccccc1C1=c2cc3c4c(c2Oc2c1cc1c5c2CCCN5CCC1)CCC[N+]=4CCC3 | – | – | – | – | – | 1.52 | – |
| COc1c(C)c(CCCCCCCCCC[P+](c2ccccc2)(c2ccccc2)c2ccccc2)c(OC)c(OC)c1OC | 0.385 | 1.65 | 3.77 | – | – | – | – |
| CC1(C)CC(C(=O)OCCCCCCCCCC[P+](c2ccccc2)(c2ccccc2)c2ccccc2)C(C)(C)N1O (stereo not given) | 0.601 | 5.15 | 4.75 | – | – | – | – |
| CCN(CC)c1ccc2c(-c3ccccc3C(=O)N(C)CCCCCC[P+](c3ccccc3)(c3ccccc3)c3ccccc3)c3ccc(=[N+](CC)CC)cc-3oc2c1 | – | – | – | – | – | 0.81 | – |
| COC1=C(OC)C(=O)C(C[P+](c2ccccc2)(c2ccccc2)c2ccccc2)=C(C)C1=O | 16.3 | > 20 | > 20 | – | – | – | – |
| CCN(CC)c1ccc2c(-c3ccccc3C(=O)N(C)CCCCCCCC[P+](c3ccccc3)(c3ccccc3)c3ccccc3)c3ccc(=[N+](CC)CC)cc-3oc2c1 | – | – | – | – | – | 2.19 | – |
| CC1(C)CC(C(=O)OCC[P+](c2ccccc2)(c2ccccc2)c2ccccc2)C(C)(C)N1O (stereo not given) | > 20 | > 20 | > 20 | – | – | – | – |
| COc1c(Br)c(C)c(CCCCCCCCCC[P+](c2ccccc2)(c2ccccc2)c2ccccc2)c(OC)c1OC | 0.37 | 1.61 | 4.07 | – | – | – | – |
| O=C(CCCCCCCCCC[P+](c1ccccc1)(c1ccccc1)c1ccccc1)Nc1nccs1 | 2.25 | 6.38 | 14.1 | – | – | – | – |
| CC(C)(C)[Si](C)(C)O[C@H]1CC[C@]2(C)[C@H]1[C@H]2CCC[P+](c1ccccc1)(c1ccccc1)c1ccccc1 | 0.86 | 1.67 | 8.05 | – | – | – | – |
| CN(CCCCCCCC[P+](c1ccccc1)(c1ccccc1)c1ccccc1)C(=O)c1ccccc1C1=c2cc3c4c(c2Oc2c1cc1c5c2CCCN5CCC1)CCC[N+]=4CCC3 | – | – | – | 5.21 | 0.37 | 0.27 | – |
| COC1=C(OC)C(=O)C(CCCCCCCCCC[P+](c2ccccc2)(c2ccccc2)c2ccccc2)=C(C)C1=O [MITOQUINONE CATION] | 0.597 | 4.3 | 5.2 | – | – | – | 6.6 |
